Results: patent publication US6881728B1, “14-β, 17-α-hydroxymethylandrostane derivatives as androgens” (Akzo Nobel N.V., priority 1999, dated 2005)

Target: T1, human androgen receptor (Homo sapiens, UniProt P10275)
T1 construct: host or cells: MCF-7 cytosol (endogenous) or CHO cells transfected with hAR
T1 sequence (P10275 1-920): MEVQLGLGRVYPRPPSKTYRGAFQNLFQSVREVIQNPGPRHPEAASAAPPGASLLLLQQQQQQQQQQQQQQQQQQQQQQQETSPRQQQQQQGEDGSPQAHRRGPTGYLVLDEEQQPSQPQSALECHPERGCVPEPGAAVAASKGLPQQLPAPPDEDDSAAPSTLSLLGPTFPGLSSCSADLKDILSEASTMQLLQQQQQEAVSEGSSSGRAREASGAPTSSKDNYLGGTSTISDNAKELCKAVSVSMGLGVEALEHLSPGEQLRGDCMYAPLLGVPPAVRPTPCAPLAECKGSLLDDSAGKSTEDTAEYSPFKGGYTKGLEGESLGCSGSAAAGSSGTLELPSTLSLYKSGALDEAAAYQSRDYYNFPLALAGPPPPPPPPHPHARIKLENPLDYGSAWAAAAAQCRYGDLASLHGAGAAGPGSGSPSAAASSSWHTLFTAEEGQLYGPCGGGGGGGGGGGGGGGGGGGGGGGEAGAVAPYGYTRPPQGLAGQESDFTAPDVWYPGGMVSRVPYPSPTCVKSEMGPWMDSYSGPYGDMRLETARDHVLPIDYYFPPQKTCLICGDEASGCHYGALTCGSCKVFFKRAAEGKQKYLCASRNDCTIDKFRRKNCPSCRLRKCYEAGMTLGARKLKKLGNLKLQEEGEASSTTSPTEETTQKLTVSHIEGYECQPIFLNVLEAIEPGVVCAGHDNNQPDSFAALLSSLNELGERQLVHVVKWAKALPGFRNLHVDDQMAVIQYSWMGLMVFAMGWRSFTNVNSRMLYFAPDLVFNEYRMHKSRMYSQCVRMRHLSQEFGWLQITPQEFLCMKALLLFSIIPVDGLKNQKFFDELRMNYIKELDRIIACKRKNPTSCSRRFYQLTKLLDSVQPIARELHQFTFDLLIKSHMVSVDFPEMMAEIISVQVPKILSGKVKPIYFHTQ
Experiment: androgenic activity rating (procedures described above; which one underlies the rating is not stated)
Design: key: +: androgenic activity found; ++: high androgenic activity; +++: excellent androgenic activity
Procedure: Androgenic activity can be measured in various ways. Thus, the potency of androgens can be determined in vitro using the cytoplasmic androgen receptor from human breast tumor cells (MCF-7 cell line); see Bergink, E. W. et al, Comparison of the receptor binding properties of nandrolone and testosterone under in vitro and in vivo conditions, J. Steroid Biochem. 22, 831-836 (1985). It is also possible to use Chinese hamster ovary (CHO) cells transfected with the human androgen receptor (incubation time 16 h, temperature 4° C.) and compared with the affinity of 5α-dihydrotestosterone [according to the procedure described by Bergink, E. W. et al, J. Steroid Biochem. 12, 1563-1570 (1983)]. The transactivative androgen activity of the compounds of the invention can be measured, e.g. in Chinese hamster ovary cells (CHO) transfected with the human androgen receptor (hAR), in combination with a mouse mammary tumor virus (MMTV), and luciferase […] (incubation time 16 h, temperature 37° C.) and compared with the activity of 5α-dihydrotestosterone [according to the procedure described by Schoonen, W. G. E. J. et al, Analyt. Biochem. 261, 222-224 (1998)]. For the in vivo potency determination of androgens the classical Hershberger test can be used. In this test the androgenic (increase in prostate weight) and anabolic activities [increase of the musculus levator ani (MLA)] of a compound are tested in immature castrated rats after daily administration for 7 days; see Hershberger, L. G. et al, Myotrophic activity of 19-Nortestosterone and other steroids determined by modified levator ani muscle method, Proceedings of the society for experimental biology and medicine 83, 175-180 (1953). Additionally, the effect of an androgenic compound on LH suppression can be tested in mature castrated rats according to Kumar, N. et al, The biological activity of 7alpha-methyl-19-nortestosterone is not amplified in male reproductive tract as is that of testosterone, Endocrinology 130, 3677-3683 (1992).
A plurality of compounds according to the invention were tested for androgenic activity (the procedures for which have been described above) and rated in the Table below according to the following scheme: • + androgenic activity found; • ++ high androgenic activity; • +++ excellent androgenic activity; • nd no data available
In the case of `C[C@]12CC[C@H]3[C@@H](CCC4=CC(=O)CC[C@@H]43)[C@H]1CC[C@H]2CO` [Example 1, (14β,17α)-17-(Hydroxymethyl)estr-4-en-3-one], the “Rating (androgenic activity)” value is reported as “+++”.
With `CC(O)C1CCC2C3C(C)CC4=CC(=O)CCC4C3CCC12C` [Example 16b, (7α,14β,17α,20R)-20-Hydroxy-7-methyl-19-norpregn-4-en-3-one] the “Rating (androgenic activity)” value was “+”.
For `CCC(O)[C@@H]1CC[C@@H]2[C@H]3[C@H](CC[C@@]21C)[C@H]1CCC(=O)C=C1C[C@H]3C` (stereo partly drawn) [Example 17b, [7α,14β,17α(R)]-17-(1-Hydroxypropyl)-7-methylestr-4-en-3-one], the “Rating (androgenic activity)” value was “+”.
In the case of `C=CC(O)[C@@H]1CC[C@@H]2[C@H]3[C@H](CC[C@@]21C)[C@H]1CCC(=O)C=C1C[C@H]3C` (stereo partly drawn) [Example 18a, [7α,14β,17α(S)]-17-(1-Hydroxy-2-propenyl)-7-methylestr-4-en-3-one], the “Rating (androgenic activity)” value is reported as “+”.
In the case of `C#C[C@H](O)[C@@H]1CC[C@@H]2[C@H]3[C@H](CC[C@@]21C)[C@H]1CCC(=O)C=C1C[C@H]3C` [Example 18c, [7α,14β,17α(R)]-17-(1-Hydroxy-2-propynyl)-7-methylestr-4-en-3-one], the “Rating (androgenic activity)” value is reported as “+”.
For `C#C[C@@H](O)[C@@H]1CC[C@@H]2[C@H]3[C@H](CC[C@@]21C)[C@H]1CCC(=O)C=C1C[C@H]3C` [Example 18d, [7α,14β,17α(S)]-17-(1-Hydroxy-2-propynyl)-7-methylestr-4-en-3-one], the “Rating (androgenic activity)” value was “+”.
With `C=CCC(O)C1CCC2C3C(C)CC4=CC(=O)CCC4C3CCC12C` [Example 18g, (7α,14β,17α,20S)-20-Hydroxy-7-methyl-19,21-dinorchola-4,23-dien-3-one] the “Rating (androgenic activity)” value was “+”.
In the case of `C=CC[C@@H](O)[C@@H]1CC[C@@H]2[C@H]3[C@H](CC[C@@]21C)[C@H]1CCC(=O)C=C1C[C@H]3C` [Example 18h, (7α,14β,17α,20R)-20-Hydroxy-7-methyl-19,21-dinorchola-4,23-dien-3-one], the “Rating (androgenic activity)” value is reported as “+”.
With `CC1CC2=CC(=O)CCC2C2CCC3(C)C(CCC3C(C)(C)O)C12` (stereo not drawn) [Example 19, (7α,14β,17α)-20-Hydroxy-7,20-dimethyl-19-norpregn-4-en-3-one] the “Rating (androgenic activity)” value was “+”.
For `CC(O)C1C2CC2C2C3C(C)CC4=CC(=O)CCC4C3CCC12C` [Example 20a, (7α,14β,15β,16β,17α,20S)-20-Hydroxy-7-methyl-15,16-methylene-19-norpregn-4-en-3-one], the “Rating (androgenic activity)” value was “++”.
With `CC(O)C1C2CC2C2C3C(C)CC4=CC(=O)CCC4C3CCC12C` [Example 20b, (7α,14β,15β,16β,17α,20R)-20-Hydroxy-7-methyl-15,16-methylene-19-norpregn-4-en-3-one] the “Rating (androgenic activity)” value was “+”.
For `CC1CC2=CC(=O)CCC2C2CCC3(C)C(C4CC4C3C(C)(C)O)C12` (stereo not drawn) [Example 21, (7α,14β,15β,16β,17α)-20-Hydroxy-7,20-dimethyl-15,16-methylene-19-norpregn4-en-3-one], the “Rating (androgenic activity)” value was “+”.
With `CC(=O)OC[C@@H]1CC[C@@H]2[C@@H]3CCC4=CC(=O)CC[C@]4(C)[C@H]3CC[C@]12C` [Example 22a, (14β,17α)-17-[(Acetyloxy)methyl]androst-4-en-3-one] the “Rating (androgenic activity)” value was “+”.
For `C[C@]12CC[C@H]3[C@@H](CCC4=CC(=O)CC[C@@]43C)[C@H]1CC[C@H]2CO` [Example 22b, (14β,17α)-17-(Hydroxymethyl)androst-4-en-3-one], the “Rating (androgenic activity)” value was “+”.
In the case of `C[C@@H]1C[C@@H](CO)[C@@]2(C)CC[C@H]3[C@@H](CCC4=CC(=O)CC[C@@H]43)[C@@H]12` [Example 23, (14β,15β,17α)-17-(Hydroxymethyl)-15-methylestr-4-en-3-one], the “Rating (androgenic activity)” value is reported as “+”.
In the case of `CC(O)C1CCC2C3CCC4=CC(=O)CCC4C3CCC12C` [Example 24a, (14β,17α,20S)-20-Hydroxy-19-norpregn-4-en-3-one], the “Rating (androgenic activity)” value is reported as “++”.
For `CC(O)C1CCC2C3CCC4=CC(=O)CCC4C3CCC12C` [Example 24b, (14β,17α,20R)-20-Hydroxy-19-norpregn-4-en-3-one], the “Rating (androgenic activity)” value was “+”.
With `CC[C@H](O)[C@@H]1CC[C@@H]2[C@@H]3CCC4=CC(=O)CC[C@@H]4[C@H]3CC[C@@]21C` [Example 25a] the “Rating (androgenic activity)” value was “++”.
In the case of `CCC(O)[C@@H]1CC[C@@H]2[C@@H]3CCC4=CC(=O)CC[C@@H]4[C@H]3CC[C@@]21C` (stereo partly drawn) [Example 25b, [14β,17α(R)]-17-(1-Hydroxypropyl)estr-4-en-3-one], the “Rating (androgenic activity)” value is reported as “+”.
With `CCC[C@H](O)[C@@H]1CC[C@@H]2[C@@H]3CCC4=CC(=O)CC[C@@H]4[C@H]3CC[C@@]21C` [Example 25c, (14β,17α,20S)-20-Hydroxy-19,21-dinorchol-4-en-3-one] the “Rating (androgenic activity)” value was “+”.
With `CC(O)C1CCC2C3CCC4=CC(=O)CCC4=C3CCC12C` [Example 27a, (14β,17α,20S)-20-Hydroxy-19-norpregna-4,9-dien-3-one] the “Rating (androgenic activity)” value was “++”.
With `CC(O)C1CCC2C3CCC4=CC(=O)CCC4=C3CCC12C` [Example 27b, (14β,17α,20R)-20-Hydroxy-19-norpregna-4,9-dien-3-one] the “Rating (androgenic activity)” value was “+”.
In the case of `CCC1CC2(C)C(C(C)O)CCC2C2CCC3=C(CCC(=O)C3)C12` [Example 28a, (11β,14β,17α,20S)-11-Ethyl-20-hydroxy-19-norpregn-5(10)-en-3-one], the “Rating (androgenic activity)” value is reported as “+”.
For `CCC1CC2(C)C(C(C)O)CCC2C2CCC3=CC(=O)CCC3C12` [Example 29a, (11β,14β,17α,20S)-11-Ethyl-20-hydroxy-19-norpregn-4-en-3-one], the “Rating (androgenic activity)” value was “+”.
With `C=CC1CC2(C)C(C(C)O)CCC2C2CCC3=CC(=O)CCC3=C12` [Example 30, (11β,14β,17α,20S)-11-Ethenyl-20-hydroxy-19-norpregna-4,9-dien-3-one] the “Rating (androgenic activity)” value was “+”.
With `CCC12CCC3C4CCC(=O)C=C4CCC3C1CCC2C(C)O` [Example 32a, (14β,17α,20S)-13-Ethyl-20-hydroxy-18,19-dinorpregn-4-en-3-one] the “Rating (androgenic activity)” value was “+”.
In the case of `CC(=O)OC[C@@H]1CC[C@@H]2[C@H]3[C@H](CC[C@]12C)[C@H]1CCC(=O)C=C1C[C@H]3C` [Example 33a, (7α,14β,17α)-17-[(Acetyloxy)methyl]-7-methylestr-4-en-3-one], the “Rating (androgenic activity)” value is reported as “+”.
In the case of `CCCCCCCCCCC(=O)OC[C@@H]1CC[C@@H]2[C@H]3[C@H](CC[C@]12C)[C@H]1CCC(=O)C=C1C[C@H]3C` [Example 33c, (7α,14β,17α)-7-Methyl-17-[[(1-oxoundecyl)oxy]methyl]estr-4-en-3-one], the “Rating (androgenic activity)” value is reported as “+”.
With `C[C@@H]1CC2=C[C@@H](O)CC[C@@H]2[C@H]2CC[C@]3(C)[C@H](CO)CC[C@@H]3[C@@H]21` [Example 34, (3β,7α,14β,17α)-17-(Hydroxymethyl)-7-methylestr-4-en-3-ol] the “Rating (androgenic activity)” value was “++”.
With `C[C@@H]1CC2=C/C(=N/O)CC[C@@H]2[C@H]2CC[C@]3(C)[C@H](CO)CC[C@@H]3[C@@H]21` [Example 36a, (3E,7α,14β,17α)-3-(Hydroxyimino)-7-methylestr-4-ene-17-methanol] the “Rating (androgenic activity)” value was “+”.
For `C[C@@H]1CC2=CCCC[C@@H]2[C@H]2CC[C@]3(C)[C@H](CO)CC[C@@H]3[C@@H]21` [Example 37, (7α,14β,17α)-7-Methylestr4-ene-17-methanol], the “Rating (androgenic activity)” value was “+”.

System: not given
Experiment: not given
With `C[C@]12CC[C@H]3[C@@H](CCC4=CC(=O)CC[C@@H]43)[C@H]1CC[C@H]2CO` [Example 1, (14β,17α)-17-(Hydroxymethyl)estr-4-en-3-one] the melting point was 115 to 118 °C.
In the case of `CC(=O)OC[C@@H]1CC[C@@H]2[C@@H]3CCC4=CC(=O)CC[C@]4(C)[C@H]3CC[C@]12C` [Example 22a, (14β,17α)-17-[(Acetyloxy)methyl]androst-4-en-3-one], the melting point is reported as 141 to 142 °C.
